Experimental findings from patent US9493436B2, “Tyrosine phosphatase inhibitors and uses thereof to modulate the activity of enzymes involved in the pathology of Mycobacterium tuberculosis” (priority 2011, dated 2016) are described below.

As a reminder, the IC50 is the midpoint of a concentration-inhibition curve.

The target in the first experiment is T1, mPTPB (Mycobacterium tuberculosis, UniProt I6WXK4).
T1 construct: The full-length mPTPB with a N-terminal His6-tag was expressed and purified; His6 (N); made in house; host or cells: E. coli BL21/DE3 (pET28b-mPTPB)
T1 sequence (I6WXK4 1-276): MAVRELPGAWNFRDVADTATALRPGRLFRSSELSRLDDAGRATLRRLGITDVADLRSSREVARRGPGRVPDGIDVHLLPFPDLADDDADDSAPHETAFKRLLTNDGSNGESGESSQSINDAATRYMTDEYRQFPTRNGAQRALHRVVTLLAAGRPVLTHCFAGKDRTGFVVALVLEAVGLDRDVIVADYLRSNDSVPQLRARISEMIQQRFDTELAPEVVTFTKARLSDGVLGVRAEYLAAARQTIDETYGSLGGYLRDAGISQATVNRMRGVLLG
Briefly: biochemical. Particulars: 1 μM, library 13 screened in situ. Format: biochemical.
For `Cn1c(-c2ccccc2C(F)(F)F)c(C(=O)CCNC(=O)c2cccc(I)c2)c2cc(C(=O)O)c(O)cc21` [Compound 213b, 6-hydroxy-3-(3-(3-iodobenzamido)propanoyl)-1-methyl-2-(2-(trifluoromethyl)phenyl)-1H-indole-5-carboxylic acid], the “In % @ 1 μM (mPTPB)” value amounted to 52%.
On to `CC(C)[C@H]1CC[C@H](C)C[C@@H]1OCC(=O)NCCC(=O)c1c(-c2ccccc2C(F)(F)F)n(C)c2cc(O)c(C(=O)O)cc12` [Compound 213c, 6-hydroxy-3-(3-(2-(((1S,2R,5S)-2-isopropyl-5-methylcyclohexyl)oxy)acetamido)propanoyl)-1-methyl-2-(2-(trifluoromethyl)phenyl)-1H-indole-5-carboxylic acid], for which the “In % @ 1 μM (mPTPB)” value is 5%.
Same read-out and setting: the same measure for `Cn1c(-c2ccccc2C(F)(F)F)c(C(=O)CCNC(=O)c2ccc3nc(-c4ccccc4Br)[nH]c3c2)c2cc(C(=O)O)c(O)cc21` [Compound 213d, 3-(3-(2-(2-bromophenyl)-1H-benzo[d]imidazole-6-carboxamido)propanoyl)-6-hydroxy-1-methyl-2-(2-(trifluoromethyl)phenyl)-1H-indole-5-carboxylic acid]: 10%.

Still in this experiment, the particulars now being: pNPP substrate, pH 7.0, 25° C.; read-out: IC50 (μM) against mPTPB.
Consider `O=C(O)c1cc2c(C#Cc3ccc(Oc4ccccc4)cc3)c(-c3ccccc3)oc2cc1O` [34 (L01Z12)], for which the IC50 is 0.043 µM.
Same read-out and setting: for `C#Cc1c(-c2ccc(OC(F)(F)F)cc2)oc2cc(O)c(C(=O)O)cc12` [35 (Core73)] the value was 1.71 µM.
The same measure, in the same setting: for `O=C(O)c1cc2c(C#Cc3cccc(Cl)c3)c(-c3ccc(OC(F)(F)F)cc3)oc2cc1O` [36 (L73Z01)] the value was 0.082 µM; for `O=C(O)c1cc2c(C#Cc3ccc(Cl)c(Cl)c3)c(-c3ccc(OC(F)(F)F)cc3)oc2cc1O` [37 (L73Z02)], 0.12 µM.
On the same count and under the same terms, the same measure for `O=C(O)c1cc2c(C#Cc3ccsc3)c(-c3ccc(OC(F)(F)F)cc3)oc2cc1O` [38 (L73Z03)]: 0.35 µM.
For `O=C(O)COc1cccc(C#Cc2c(-c3ccc(OC(F)(F)F)cc3)oc3cc(O)c(C(=O)O)cc23)c1` [39 (L73Z05)], the IC50 was 0.19 µM.
Same read-out and setting: for `C#Cc1c(-c2ccc(Oc3ccccc3)cc2)oc2cc(O)c(C(=O)O)cc12` [40 (Core69)] the value was 2.3 µM; for `C#Cc1c(-c2ccc(-c3ccccc3)cc2)oc2cc(O)c(C(=O)O)cc12` [41 (Core71)], 0.85 µM; for `C#Cc1c(-c2cccc(Cl)c2)oc2cc(O)c(C(=O)O)cc12` [42 (Core72)], 3.1 µM.
For `O=C(O)c1cc2c(C=Cc3cc(F)cc(F)c3)c(-c3ccccc3)oc2cc1O` [43 (L01Z25)], the IC50 was determined as 1.2 µM.
Still for that read-out and setting: for `O=C(O)c1cc2c(C=Cc3cccc(C(F)(F)F)c3)c(-c3ccccc3)oc2cc1O` [44 (L01X09)] the value was 1.2 µM.
`Cn1c(-c2cccc(C(F)(F)F)c2)c(I)c2cc(C(=O)O)c(O)cc21` [Compound 207b, 6-hydroxy-3-iodo-1-methyl-2-(3-(trifluoromethyl)phenyl)-1H-indole-5-carboxylic acid]: the IC50 is 2.2 ± 0.2 µM.
Still for that read-out and setting: the same measure for `Cn1c(-c2ccc(-c3ccccc3)cc2)c(I)c2cc(C(=O)O)c(O)cc21` [Compound 207c, 2-([1,1′-biphenyl]-4-yl)-6-hydroxy-3-iodo-1-methyl-1H-indole-5-carboxylic acid]: 2.4 ± 0.2 µM; for `Cn1c(C2CCCCC2)c(I)c2cc(C(=O)O)c(O)cc21` [Compound 207d, 2-cyclohexyl-6-hydroxy-3-iodo-1-methyl-1H-indole-5-carboxylic acid]: 3.6 ± 0.1 µM; for `Cn1c(-c2ccc(OC(F)(F)F)cc2)c(I)c2cc(C(=O)O)c(O)cc21` [Compound 207e, 6-hydroxy-3-iodo-1-methyl-2-(4-(trifluoromethoxy)phenyl)-1H-indole-5-carboxylic acid]: 5.5 ± 0.5 µM.
On to `Cn1c(-c2ccc(C(F)(F)F)cc2)c(I)c2cc(C(=O)O)c(O)cc21` [Compound 207f, 6-hydroxy-3-iodo-1-methyl-2-(4-(trifluoromethyl)phenyl)-1H-indole-5-carboxylic acid], for which the IC50 worked out at 7 ± 1 µM.
On the same count and under the same terms, for `Cn1c(-c2ccccc2)c(I)c2cc(C(=O)O)c(O)cc21` [Compound 207g, 6-hydroxy-3-iodo-1-methyl-2-phenyl-1H-indole-5-carboxylic acid] the value was 11 ± 1 µM; for `Cn1c(-c2cccc(F)c2)c(I)c2cc(C(=O)O)c(O)cc21` [Compound 207h, 2-(3-fluorophenyl)-6-hydroxy-3-iodo-1-methyl-1H-indole-5-carboxylic acid], 11 ± 1 µM.
Turning to `Cn1c(-c2ccc(F)cc2)c(I)c2cc(C(=O)O)c(O)cc21` [Compound 207i, 2-(4-fluorophenyl)-6-hydroxy-3-iodo-1-methyl-1H-indole-5-carboxylic acid], the IC50 is 12 ± 2 µM.
Consider `Cn1c(-c2ccccc2F)c(I)c2cc(C(=O)O)c(O)cc21` [Compound 207j, 2-(2-fluorophenyl)-6-hydroxy-3-iodo-1-methyl-1H-indole-5-carboxylic acid], for which the IC50 came out at 16 ± 2 µM.
On the same count and under the same terms, the same measure for `Cn1c(-c2cccc(O)c2)c(I)c2cc(C(=O)O)c(O)cc21` [Compound 207k, 6-hydroxy-2-(3-hydroxyphenyl)-3-iodo-1-methyl-1H-indole-5-carboxylic acid]: 18 ± 1 µM.
Same read-out and setting: for `Cn1c(-c2ccccc2C(F)(F)F)c(C#Cc2cccc(C(F)(F)F)c2)c2cc(C(=O)O)c(O)cc21` [Compound 209b, 6-hydroxy-1-methyl-2-(2-(trifluoromethyl)phenyl)-3-((3-(trifluoromethyl)phenyl)ethynyl)-1H-indole-5-carboxylic acid] the value was 0.23 ± 0.04 µM; for `Cn1c(-c2ccccc2C(F)(F)F)c(C#Cc2ccccc2C(F)(F)F)c2cc(C(=O)O)c(O)cc21` [Compound 209c, 6-hydroxy-1-methyl-2-(2-(trifluoromethyl)phenyl)-3-((2-(trifluoromethyl)phenyl)ethynyl)-1H-indole-5-carboxylic acid], 0.3 ± 0.05 µM; for `Cn1c(-c2ccccc2C(F)(F)F)c(C#Cc2ccc(Oc3ccccc3)cc2)c2cc(C(=O)O)c(O)cc21` [Compound 209d, 6-hydroxy-1-methyl-3-((4-phenoxyphenyl)ethynyl)-2-(2-(trifluoromethyl)phenyl)-1H-indole-5-carboxylic acid], 0.46 ± 0.06 µM.
On the same count and under the same terms, for `Cn1c(-c2ccccc2C(F)(F)F)c(C#Cc2ccc(C(F)(F)F)cc2)c2cc(C(=O)O)c(O)cc21` [Compound 209e, 6-hydroxy-1-methyl-2-(2-(trifluoromethyl)phenyl)-3-((4-(trifluoromethyl)phenyl)ethynyl)-1H-indole-5-carboxylic acid] the value was 0.6 ± 0.1 µM; for `Cn1c(-c2ccccc2C(F)(F)F)c(C#Cc2ccc(OC(F)(F)F)cc2)c2cc(C(=O)O)c(O)cc21` [Compound 209f, 6-hydroxy-1-methyl-3-((4-(trifluoromethoxy)phenyl)ethynyl)-2-(2-(trifluoromethyl)phenyl)-1H-indole-5-carboxylic acid], 0.85 ± 0.2 µM; for `Cn1c(-c2ccccc2C(F)(F)F)c(C(=O)CCNC(=O)c2cccc(I)c2)c2cc(C(=O)O)c(O)cc21` [Compound 213b, 6-hydroxy-3-(3-(3-iodobenzamido)propanoyl)-1-methyl-2-(2-(trifluoromethyl)phenyl)-1H-indole-5-carboxylic acid], 0.68 ± 0.04 µM.
On to `CC(C)[C@H]1CC[C@H](C)C[C@@H]1OCC(=O)NCCC(=O)c1c(-c2ccccc2C(F)(F)F)n(C)c2cc(O)c(C(=O)O)cc12` [Compound 213c, 6-hydroxy-3-(3-(2-(((1S,2R,5S)-2-isopropyl-5-methylcyclohexyl)oxy)acetamido)propanoyl)-1-methyl-2-(2-(trifluoromethyl)phenyl)-1H-indole-5-carboxylic acid], for which the IC50 came out at 3.3 ± 0.1 µM.
On the same count and under the same terms, the same measure for `Cn1c(-c2ccccc2C(F)(F)F)c(C(=O)CCNC(=O)c2ccc3nc(-c4ccccc4Br)[nH]c3c2)c2cc(C(=O)O)c(O)cc21` [Compound 213d, 3-(3-(2-(2-bromophenyl)-1H-benzo[d]imidazole-6-carboxamido)propanoyl)-6-hydroxy-1-methyl-2-(2-(trifluoromethyl)phenyl)-1H-indole-5-carboxylic acid]: 5.2 ± 0.2 µM.

The same experiment, now with this note: read-out: IC50 for mPTPB.
For the compound `CC(C)c1ccc(NC(=O)COc2cccc(-c3oc4cc(O)c(C(=O)O)cc4c3C#Cc3cccc(Cl)c3)c2)cc1`, the IC50 was around 0.025 µM.
